Laboratory results: patent US7524886B2, “L-(−)-moprolol L-(+)-tartrate” (Aziende Chimiche Riunite Angelini Francesco A.C.R.A.F. …, priority 2004, dated 2009)

Tested on: rabbit eye (conjunctiva, iris, cornea)
Assay: Ocular tolerability (Draize) in rabbits
Format: in vivo, rabbits (New Zealand White)
Description: Two aqueous solutions were used.
The first contained 1% by weight of L-(−)-moprolol hydrochloride (corresponding to 0.87% by weight of L-(−)-moprolol). The second contained 1.14% by weight of L-(−)-moprolol L-(+)-tartrate (2:1) (corresponding to 0.87% by weight of L-(−)-moprolol).
12 male rabbits (New Zealand White) with an average weight of 2 kg and an average age of ten months were used, divided into two groups of six rabbits each. The first group was treated with 0.1 ml of the first test solution three times a day for fifteen days. The second group was treated with 0.1 ml of the second test solution three times a day for fifteen days.
The tolerability was evaluated according to J. Draize et al., Pharmacol. Exp. Ther., 83, 377-390 (1944).

[1] = Draize score, male rabbits, 0.1 ml aqueous solution (0.87% by weight L-(−)-moprolol) three times a day for fifteen days

| SMILES | Conjunctiva Lachrymation [1] | Conjunctiva Reddening [1] | Conjunctiva Swelling [1] | Cornea Area of the cornea affected by opacity [1] | Cornea Opacity [1] | Iris [1] | local tolerability (rabbit, in vivo) | Total Score (sum of Draize scores, male rabbits, 0.1 ml aqueous solution (0.87% by weight L-(−)-moprolol) three times a day for fifteen days) | Conjunctiva Lachrymation (rabbit, in vivo) | Conjunctiva Reddening (rabbit, in vivo) | Conjunctiva Swelling (rabbit, in vivo) | Cornea Area of the cornea affected by opacity (rabbit, in vivo) | Cornea Opacity (rabbit, in vivo) | Iris (rabbit, in vivo) | Total Score (rabbit, in vivo) |
| --- | --- | --- | --- | --- | --- | --- | --- | --- | --- | --- | --- | --- | --- | --- | --- |
| COc1ccccc1OC[C@@H](O)CNC(C)C.COc1ccccc1OC[C@@H](O)CNC(C)C.O=C(O)C(O)C(O)C(=O)O [L-(−)-moprolol L-(+)-tartrate, L-(−)-moprolol L-(+)-tartrate (2:1)] | 1 | 0 | 0 | 0 | 0 | 0 | better local tolerability | 1 | – | – | – | – | – | – | – |
| COc1ccccc1OC[C@@H](O)CNC(C)C.Cl [L-(−)-moprolol hydrochloride, reference compound] | – | – | – | – | – | – | – | – | 2 | 1 | 2 | 0 | 0 | 0 | 5 |
